{"source": "patent US11471467B2", "about": "“Ruthenium complexes for treating cancer which comprises cancer stem cells” (UNIVERSIDADE DE SANTIAGO DE COMPOSTELA, priority 2016, dated 2022)", "key": {"[1]": {"test_system": "Panc185 and PancA6L cells", "test": "Annexin V / DAPI staining of PDAC cells", "type": "cell-based", "experimental": "FIG. 21. Cytotoxic effects of RuH2O on PDAC sphere cultures. Light micrographs and annexin-V staining of Panc185 and PancA6L cells after 72 hours of treatment with 100 μM of RuH2O.\nFIG. 24. Induction of apoptosis in PDAC cells. Annexin-V staining of PDAC cells treated for 48 hours with 100 or 250 μM of RuH2O.\nThe effect of 100 μM of RuH2O on cultures rich in CSC was confirmed at the microscopic level and by measuring annexin V staining. […] Cell viability determined by the percentage of DAPI negative cells dropped by 50%.\nTo rule out the possibility that the effects mentioned above arise as a result of unspecific cytotoxic effects, adherent cultures (low in CSC) were treated for 48 hours with a single dose of RuH2O (100 or 250 μM) and their subsequent clonogenicity, self-renewal, and tumorigenicity was checked. […] The treated and untreated cells were then trypsinized and the percentage of apoptotic cells was analyzed."}, "[2]": {"test_system": "guanosine monophosphate (GMP)", "test": "GMP binding (metallation) assay, HPLC", "conditions": "complex 250 μM, GMP 750 μM, 10 mM phosphate buffer pH 7.5, 100 mM NaCl", "description": "High-performance liquid chromatography (HPLC) was carried out using Agilent 1100 liquid chromatography-mass spectrometer equipment. Analytical HPLC was carried out using a Phenomenex Luna-C18 reversed-phase analytical column (10×250 mm, 5 μm), 1 mL/min, with different gradients (see below). […] Electrospray ionization mass spectrometry (ESI/MS) was performed with an Agilent 1100 Series LC/MSD VL G1956A model in positive polarity mode.\nFirst, guanosine monophosphate (GMP) metallating capacity of complex 1 was studied. To that end, complex 1 (250 μM) was mixed with 3 equivalents of GMP (750 μM) in 10 mM phosphate buffer (pH=7.5) and 100 mM NaCl.\nTo confirm that GMP metallation is completely orthogonal, competitive experiments were carried out with the other three nucleotides (AMP, CMP, and TMP). Specifically, complex 1 (250 μM) was mixed with GMP (3 equiv, 750 μM), AMP (3 equiv, 750 μM), TMP (3 equiv, 750 μM), and CMP (3 equiv, 750 μM) in 10 mM phosphate buffer (pH=7.5) and 100 mM NaCl.\nTo that end, complex 1 (250 μM) was mixed with GMP (3 equiv, 750 μM) in the presence of H-Lys(Boc)-OH (3 equiv, 750 μM) or Ac-Cys-OH (3 equiv, 750 μM) in 10 mM phosphate buffer (pH=7.5) and 100 mM NaCl.\nComplex 4 (250 μM) was mixed with 3 equivalents of GMP (750 μM) in 10 mM phosphate buffer (pH=7.5) and 100 mM NaCl."}, "[3]": {"test_system": "Panc185 and PancA6L cells", "test": "qRT-PCR gene expression in adherent PDAC cultures", "type": "cell-based", "conditions": "100 μM, 24 hours", "experimental": "FIG. 19. […] The RNA of Panc185 and PancA6L cells was extracted 24 hours after treatment with 100 μM of RuH2O. qRT-PCR analysis of Oct3/4, Sox2, and PGC1alpha was performed in cDNA generated from treated samples. […] Panc185 cells are also interchangeably referred to herein as 185 and 185 scd and Pacn6AL cells are also interchangeably referred to herein as A6L.\nFurthermore, a reduction in PGC1alpha expression, a known c-MYC target, and a reduction in pluripotency-associated genes Oct3/4 and Sox2 were observed after treatment with 100 μM of RuH2O for 24 hours (FIG. 19)."}, "[4]": {"test_system": "Panc185 and PancA6L cells", "test": "Clonogenicity of PDAC cells", "type": "cell-based", "conditions": "adherent cultures treated 48 hours with 100 or 250 μM, 10 days in culture", "experimental": "FIG. 25. Clonogenicity of PDAC cells after treatment with RuH2O. (Top) Light micrographs of Panc185 and PancA6L colonies formed after 10 days in culture. The colonies were visualized with crystal violet staining. (Bottom) Colony efficiency quantification. The colonies were lysed in PBS-1% Triton-X and color intensity was measured with a plate reader.\nThe trypsinized cells were then: 1) placed in a plate at a low confluence to evaluate their clonogenicity (FIG. 25); 2) repeatedly cultured in ultra-low adherent plates in serum-free DMEM/F12 supplemented with B27 for intervals of 7 days to evaluate sphere formation capacity over multiple generations (FIG. 26); and 3) subcutaneously injected into NOD-SCID mice to check their tumorigenicity as described above (FIG. 27)."}, "c-MYC": {"test_system": "c-MYC", "test": "c-MYC protein expression by Western blot in HeLa cells", "type": "cell-based", "experimental": "FIG. 11. (Left) Analysis of the expression levels of c-MYC (light colored bars) and ALAS1 (dark colored bars) by means of qRT-PCR. HeLa cells were incubated for 16 h or 48 h with 100 μM of complex 1 (RuCl), TMPyP4, or 50 μM of 5-FU. The levels are expressed in relation to the expression levels of the GAPDH gene. The values are the average of three experiments, and the error bars indicate standard error. (Right) Analysis of the expression of c-MYC by means of Western blot. HeLa cells were incubated for 16 h with 100 μM of complex 1 (RuCl) and then lysed, and c-MYC was detected by means of SDS-PAGE followed by Western blot with an anti-MYC antibody (right, upper panel). The relative amount of protein in two independent experiments was quantified by means of densitometry (right, lower panel). The data is represented as the factor of change with respect to untreated controls. The error bars indicate the standard deviation of the factor of change with respect to untreated controls.\nFIG. 14. (Left) Transcription levels of c-MYC determined by means of qRT-PCR in the dark (black bars) or after irradiation (60 min, white bars). […] The expression values are relative to the expression of the GAPDH gene. (Right) Expression levels of c-MYC protein determined by means of Western blot in the presence or absence of complex 5. The relative amount of protein with respect to the expression levels of β-actin was quantified by means of densitometry (lower panel). The experimental method was similar to the one described in FIG. 11.\nFIG. 15. […] The light colored bars correspond to expression levels of c-MYC under irradiation conditions whereas the dark colored bars correspond to darkness conditions. […] The relative levels of protein with respect to the expression levels of β-actin were quantified by means of densitometry.\nHeLa cells were incubated to a confluence of 50% in the presence of the indicated concentrations of the assayed agents for 16 h. […] The c-MYC protein was detected by means of an anti-MYC antibody (Santa-Cruz Biotechnologies). […]"}}, "data": [{"substance": "[Ru(terpy) (bpy)H2O]^2+ [complex 2]", "values": [{"measurement": "percentage of apoptotic cells", "setting": "[1]; adherent cultures, 100 or 250 μM, 48 hours", "result": "increase in the percentage of apoptotic cells was not observed"}, {"measurement": "appearance of spheres, annexin V staining", "setting": "[1]; spheres, 100 μM, 72 hours", "result": "visually smaller and apoptotic"}, {"measurement": "drop of cell viability (percentage of DAPI negative cells)", "setting": "[1]; spheres, 100 μM, 72 hours", "result": 50, "unit": "%"}, {"measurement": "GMP metallation, conversion to monoadduct 3", "setting": "[2]; 30 min at room temperature in the dark", "result": 63, "unit": "%"}, {"measurement": "GMP metallation, conversion to monoadduct 3", "setting": "[2]; 30 min irradiation at 455 nm", "result": "complete conversion"}, {"measurement": "Oct3/4 expression", "setting": "[3]", "result": "reduction"}, {"measurement": "PGC1alpha expression", "setting": "[3]", "result": "reduction"}, {"measurement": "Sox2 expression", "setting": "[3]", "result": "reduction"}, {"measurement": "clonogenicity", "setting": "[4]", "result": "prevents clonogenicity, self-regeneration, and tumorigenicity"}, {"measurement": "c-MYC protein expression", "setting": "c-MYC; in the dark", "result": "active both in the dark and upon being irradiated"}, {"measurement": "c-MYC protein expression", "setting": "c-MYC; under irradiation with light", "result": "active both in the dark and upon being irradiated"}]}]}
